US10906873B2, “Substituted cyclic amides as herbicides” (FMC Corporation, priority 2015, dated 2021)

How the values were obtained:
Type in all cases: in vivo
[1] = tested on: foxtail, giant (giant foxtail, Setaria faberii); assay: Test A postemergence, foxtail, giant; conditions: 0 to 100 scale
In short: (§1)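 Pre: seeds planted in loam/sand, directed soil spray. Post: 2–10 cm plants, 1–2 leaf. Formulation: non-phytotoxic solvent + surfactant. Greenhouse ~10 d; visual injury vs untreated, 0 = no effect, 100 = complete control.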

[2] = tested on: barnyardgrass (Echinochloa crus-galli); assay: Test B flooded paddy test, barnyardgrass; conditions: Flood, 250 g ai/ha; scale of 0 to 100 where 0 is no effect and 100 is complete control; 13 to 15 d
In short: (§2)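 Ratings use a 0-100 visual scale, where 100 is complete control, and compare treated plants with controls after 13 to 15 d of greenhouse growth. Compound went straight into paddy water kept 3 cm over the soil surface, applied to seedlings at the 2-leaf stage.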

[3] = tested on: ryegrass, It. (Italian ryegrass, Lolium multiflorum); assay: Test A postemergence, ryegrass, It.; conditions: 0 to 100 scale
In short: as §1

[4] = tested on: barnyardgrass (Echinochloa crus-galli); assay: Test A postemergence, barnyardgrass; conditions: 0 to 100 scale
In short: as §1

kochia (Kochia scoparia) [5] = assay: Test A preemergence, kochia; conditions: 0 to 100 scale
In short: as §1

[6] = tested on: blackgrass (Alopecurus myosuroides); assay: Test A postemergence, blackgrass; conditions: 0 to 100 scale
In short: as §1

rice (Oryza sativa) = assay: Test B flooded paddy test, rice; conditions: Flood, 250 g ai/ha; scale of 0 to 100 where 0 is no effect and 100 is complete control; 13 to 15 d
In short: as §2

[7] = tested on: pigweed (Amaranthus retroflexus); assay: Test A postemergence, pigweed; conditions: 0 to 100 scale
In short: as §1

[8] = tested on: ragweed (common ragweed, Ambrosia elatior); assay: Test A preemergence, ragweed; conditions: 0 to 100 scale
In short: as §1

[9] = tested on: foxtail, giant (giant foxtail, Setaria faberii); assay: Test A preemergence, foxtail, giant; conditions: 0 to 100 scale
In short: as §1

[10] = tested on: barnyardgrass (Echinochloa crus-galli); assay: Test A preemergence, barnyardgrass; conditions: 0 to 100 scale
In short: as §1

[11] = tested on: galium (catchweed bedstraw, Galium aparine); assay: Test A postemergence, galium; conditions: 0 to 100 scale
In short: as §1

kochia (Kochia scoparia) [12] = assay: Test A postemergence, kochia; conditions: 0 to 100 scale
In short: as §1

[13] = tested on: ragweed (common ragweed, Ambrosia elatior); assay: Test A postemergence, ragweed; conditions: 0 to 100 scale
In short: as §1

[14] = tested on: sedge, umbrella (small-flower umbrella sedge, Cyperus difformis); assay: Test B flooded paddy test, sedge, umbrella; conditions: Flood, 250 g ai/ha; scale of 0 to 100 where 0 is no effect and 100 is complete control; 13 to 15 d
In short: as §2

[15] = tested on: ryegrass, It. (Italian ryegrass, Lolium multiflorum); assay: Test A preemergence, ryegrass, It.; conditions: 0 to 100 scale
In short: as §1

[16] = tested on: wheat (Triticum aestivum); assay: Test A postemergence, wheat; conditions: 0 to 100 scale
In short: as §1

corn (Zea mays) = assay: Test A postemergence, corn; conditions: 0 to 100 scale
In short: as §1

[17] = tested on: pigweed (Amaranthus retroflexus); assay: Test A preemergence, pigweed; conditions: 0 to 100 scale
In short: as §1

[18] = tested on: ducksalad (Heteranthera limosa); assay: Test B flooded paddy test, ducksalad; conditions: Flood, 250 g ai/ha; scale of 0 to 100 where 0 is no effect and 100 is complete control; 13 to 15 d
In short: as §2

O=C1NCC(C#Cc2ccc(F)cc2)C1C(=O)Nc1ccc(F)c(F)c1F (centres unmarked) [Compound 17]
20: Plant response rating, Barnyardgrass ([4]; 125 g ai/ha) | Plant response rating, Barnyardgrass ([10]; 125 g ai/ha) | Plant response rating, Pigweed ([17]; 500 g ai/ha)
90: Plant response rating, Barnyardgrass ([4]; 500 g ai/ha) | Plant response rating, Foxtail, Giant ([9]; 500 g ai/ha)
30: Plant response rating, Foxtail, Giant ([9]; 125 g ai/ha)
50: Plant response rating, Foxtail, Giant ([1]; 500 g ai/ha) | Plant response rating, Barnyardgrass ([10]; 500 g ai/ha)
0: Plant response rating, Foxtail, Giant ([1]; 125 g ai/ha) | Plant response rating, Barnyardgrass [2] | Plant response rating, Ryegrass, It. ([3]; 125 g ai/ha) | Plant response rating, Ryegrass, It. ([3]; 500 g ai/ha) | Plant response rating, Kochia (kochia (Kochia scoparia) [5]; 125 g ai/ha) | Plant response rating, Kochia (kochia (Kochia scoparia) [5]; 500 g ai/ha) | Plant response rating, Blackgrass ([6]; 125 g ai/ha) | Plant response rating, Blackgrass ([6]; 500 g ai/ha) | Plant response rating, Rice (rice (Oryza sativa)) | Plant response rating, Pigweed ([7]; 125 g ai/ha) | Plant response rating, Pigweed ([7]; 500 g ai/ha) | Plant response rating, Ragweed ([8]; 125 g ai/ha) | Plant response rating, Ragweed ([8]; 500 g ai/ha) | Plant response rating, Galium ([11]; 125 g ai/ha) | Plant response rating, Galium ([11]; 500 g ai/ha) | Plant response rating, Kochia (kochia (Kochia scoparia) [12]; 125 g ai/ha) | Plant response rating, Kochia (kochia (Kochia scoparia) [12]; 500 g ai/ha) | Plant response rating, Ragweed ([13]; 125 g ai/ha) | Plant response rating, Ragweed ([13]; 500 g ai/ha) | Plant response rating, Sedge, Umbrella [14] | Plant response rating, Ryegrass, It. ([15]; 125 g ai/ha) | Plant response rating, Ryegrass, It. ([15]; 500 g ai/ha) | Plant response rating, Wheat ([16]; 125 g ai/ha) | Plant response rating, Wheat ([16]; 500 g ai/ha) | Plant response rating, Corn (corn (Zea mays); 125 g ai/ha) | Plant response rating, Corn (corn (Zea mays); 500 g ai/ha) | Plant response rating, Pigweed ([17]; 125 g ai/ha)
70: Plant response rating, Ducksalad [18]

O=C(Nc1cccc(C(F)(F)F)c1)C1CNC(=O)C1C(=O)Nc1cccc(F)c1F (centres unmarked) [Compound 18]
60: Plant response rating, Foxtail, Giant ([9]; 500 g ai/ha)
15: Plant response rating, Rice (rice (Oryza sativa))
0: Plant response rating, Ryegrass, It. ([3]; 125 g ai/ha) | Plant response rating, Ryegrass, It. ([3]; 500 g ai/ha) | Plant response rating, Kochia (kochia (Kochia scoparia) [5]; 125 g ai/ha) | Plant response rating, Kochia (kochia (Kochia scoparia) [5]; 500 g ai/ha) | Plant response rating, Pigweed ([7]; 125 g ai/ha) | Plant response rating, Ragweed ([8]; 125 g ai/ha) | Plant response rating, Galium ([11]; 125 g ai/ha) | Plant response rating, Kochia (kochia (Kochia scoparia) [12]; 125 g ai/ha) | Plant response rating, Kochia (kochia (Kochia scoparia) [12]; 500 g ai/ha) | Plant response rating, Ragweed ([13]; 125 g ai/ha) | Plant response rating, Ragweed ([13]; 500 g ai/ha) | Plant response rating, Sedge, Umbrella [14] | Plant response rating, Ryegrass, It. ([15]; 125 g ai/ha) | Plant response rating, Wheat ([16]; 125 g ai/ha) | Plant response rating, Wheat ([16]; 500 g ai/ha) | Plant response rating, Corn (corn (Zea mays); 125 g ai/ha) | Plant response rating, Corn (corn (Zea mays); 500 g ai/ha) | Plant response rating, Pigweed ([17]; 125 g ai/ha) | Plant response rating, Pigweed ([17]; 500 g ai/ha)
30: Plant response rating, Barnyardgrass [2] | Plant response rating, Barnyardgrass ([4]; 500 g ai/ha) | Plant response rating, Blackgrass ([6]; 500 g ai/ha) | Plant response rating, Pigweed ([7]; 500 g ai/ha) | Plant response rating, Barnyardgrass ([10]; 500 g ai/ha)
40: Plant response rating, Ducksalad [18]
50: Plant response rating, Foxtail, Giant ([1]; 500 g ai/ha) | Plant response rating, Foxtail, Giant ([9]; 125 g ai/ha) | Plant response rating, Galium ([11]; 500 g ai/ha)
20: Plant response rating, Foxtail, Giant ([1]; 125 g ai/ha) | Plant response rating, Barnyardgrass ([4]; 125 g ai/ha) | Plant response rating, Blackgrass ([6]; 125 g ai/ha) | Plant response rating, Barnyardgrass ([10]; 125 g ai/ha) | Plant response rating, Ryegrass, It. ([15]; 500 g ai/ha)

O=C1NCC(C#Cc2ccc(F)cc2)C1C(=O)Nc1ccccc1F (centres unmarked) [Compound 19]
0: Plant response rating, Foxtail, Giant ([1]; 125 g ai/ha) | Plant response rating, Barnyardgrass [2] | Plant response rating, Ryegrass, It. ([3]; 125 g ai/ha) | Plant response rating, Ryegrass, It. ([3]; 500 g ai/ha) | Plant response rating, Barnyardgrass ([4]; 125 g ai/ha) | Plant response rating, Kochia (kochia (Kochia scoparia) [5]; 125 g ai/ha) | Plant response rating, Kochia (kochia (Kochia scoparia) [5]; 500 g ai/ha) | Plant response rating, Blackgrass ([6]; 125 g ai/ha) | Plant response rating, Blackgrass ([6]; 500 g ai/ha) | Plant response rating, Rice (rice (Oryza sativa)) | Plant response rating, Pigweed ([7]; 125 g ai/ha) | Plant response rating, Pigweed ([7]; 500 g ai/ha) | Plant response rating, Ragweed ([8]; 125 g ai/ha) | Plant response rating, Ragweed ([8]; 500 g ai/ha) | Plant response rating, Foxtail, Giant ([9]; 125 g ai/ha) | Plant response rating, Barnyardgrass ([10]; 125 g ai/ha) | Plant response rating, Galium ([11]; 125 g ai/ha) | Plant response rating, Galium ([11]; 500 g ai/ha) | Plant response rating, Kochia (kochia (Kochia scoparia) [12]; 125 g ai/ha) | Plant response rating, Kochia (kochia (Kochia scoparia) [12]; 500 g ai/ha) | Plant response rating, Ragweed ([13]; 125 g ai/ha) | Plant response rating, Ragweed ([13]; 500 g ai/ha) | Plant response rating, Sedge, Umbrella [14] | Plant response rating, Ryegrass, It. ([15]; 125 g ai/ha) | Plant response rating, Ryegrass, It. ([15]; 500 g ai/ha) | Plant response rating, Wheat ([16]; 125 g ai/ha) | Plant response rating, Wheat ([16]; 500 g ai/ha) | Plant response rating, Corn (corn (Zea mays); 125 g ai/ha) | Plant response rating, Corn (corn (Zea mays); 500 g ai/ha) | Plant response rating, Pigweed ([17]; 125 g ai/ha) | Plant response rating, Pigweed ([17]; 500 g ai/ha) | Plant response rating, Ducksalad [18]
50: Plant response rating, Barnyardgrass ([10]; 500 g ai/ha)
40: Plant response rating, Barnyardgrass ([4]; 500 g ai/ha)
20: Plant response rating, Foxtail, Giant ([1]; 500 g ai/ha) | Plant response rating, Foxtail, Giant ([9]; 500 g ai/ha)

O=C1NCC(CCc2ccccc2)C1C(=O)Nc1ccccc1F (centres unmarked) [Compound 20]
50: Plant response rating, Ducksalad [18]
0: Plant response rating, Foxtail, Giant ([1]; 125 g ai/ha) | Plant response rating, Foxtail, Giant ([1]; 500 g ai/ha) | Plant response rating, Barnyardgrass [2] | Plant response rating, Ryegrass, It. ([3]; 125 g ai/ha) | Plant response rating, Ryegrass, It. ([3]; 500 g ai/ha) | Plant response rating, Barnyardgrass ([4]; 125 g ai/ha) | Plant response rating, Barnyardgrass ([4]; 500 g ai/ha) | Plant response rating, Kochia (kochia (Kochia scoparia) [5]; 125 g ai/ha) | Plant response rating, Kochia (kochia (Kochia scoparia) [5]; 500 g ai/ha) | Plant response rating, Blackgrass ([6]; 125 g ai/ha) | Plant response rating, Blackgrass ([6]; 500 g ai/ha) | Plant response rating, Rice (rice (Oryza sativa)) | Plant response rating, Pigweed ([7]; 125 g ai/ha) | Plant response rating, Pigweed ([7]; 500 g ai/ha) | Plant response rating, Ragweed ([8]; 125 g ai/ha) | Plant response rating, Ragweed ([8]; 500 g ai/ha) | Plant response rating, Foxtail, Giant ([9]; 125 g ai/ha) | Plant response rating, Foxtail, Giant ([9]; 500 g ai/ha) | Plant response rating, Barnyardgrass ([10]; 125 g ai/ha) | Plant response rating, Barnyardgrass ([10]; 500 g ai/ha) | Plant response rating, Galium ([11]; 125 g ai/ha) | Plant response rating, Galium ([11]; 500 g ai/ha) | Plant response rating, Kochia (kochia (Kochia scoparia) [12]; 125 g ai/ha) | Plant response rating, Kochia (kochia (Kochia scoparia) [12]; 500 g ai/ha) | Plant response rating, Ragweed ([13]; 125 g ai/ha) | Plant response rating, Ragweed ([13]; 500 g ai/ha) | Plant response rating, Sedge, Umbrella [14] | Plant response rating, Ryegrass, It. ([15]; 125 g ai/ha) | Plant response rating, Ryegrass, It. ([15]; 500 g ai/ha) | Plant response rating, Wheat ([16]; 125 g ai/ha) | Plant response rating, Wheat ([16]; 500 g ai/ha) | Plant response rating, Corn (corn (Zea mays); 125 g ai/ha) | Plant response rating, Corn (corn (Zea mays); 500 g ai/ha) | Plant response rating, Pigweed ([17]; 125 g ai/ha) | Plant response rating, Pigweed ([17]; 500 g ai/ha)
